The source of these data is BindingDB's records for doi:10.1021/jm030050p (Johnson & Johnson Pharmaceutical Research & Development, 2003).

The target in the test is Trypsin (Bos taurus). The test is described as follows: In vitro inhibition of bovine trypsin.

Structures can show the parent of a compound that is named as a salt.

For `CC(=O)N1C[C@H](O)C[C@H]1C(=O)NC(CCCN)C(=O)c1nc2ccccc2s1` (some centres not stated) [1-Acetyl-4-hydroxy-pyrrolidine-2-carboxylic acid [4-amino-1-(benzothiazole-2-carbonyl)-butyl]-amide; TFA], the inhibition constant Ki (usually the equilibrium dissociation constant of an inhibitor or competing ligand from its target) is 0.016 µM. Molecule `COS(=O)(=O)N1CCC[C@H]1C(=O)N[C@@H](CCCNC(=N)N)C(=O)c1nc2ccccc2s1` [2-[1-(Benzothiazole-2-carbonyl)-4-guanidino-butylcarbamoyl]-pyrrolidine-1-sulfonic acid methyl ester; TFA] showed a Ki of 0.038 µM. This Ki lies about 2.4-fold higher than the previous one.
